Drawing on PubChem BioAssay (NCI), this text covers TGI and GI50 for 14 compounds.

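48-hour exposure; five concentrations; linearly interpolated endpoints. GI50: concentration for 50% inhibition of growth. At the TGI there is no net growth.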

Some test systems named below: SK-MEL-28 melanoma; U251 CNS; IGROV1 ovarian; K-562 leukemia; RXF 393 renal; OVCAR-8 ovarian; NCI/ADR-RES ovarian; 786-0 renal; LOX IMVI melanoma; UO-31 renal.
What all share (assay): NCI anticancer screen, dose series, 48 h

Consider `N#Cc1c(-c2ccccc2)cc(-c2ccc(Cl)cc2)[nH]c1=S`, for which the TGI with SK-MEL-28 melanoma is 80.1 µM; in the test on U251 CNS, 48.5 µM; with IGROV1 ovarian, 89.8 µM; with K-562 leukemia, more than 100 µM; in the test on RXF 393 renal, more than 100 µM; in the test on OVCAR-8 ovarian, more than 100 µM. In addition, the TGI in the test with NCI/ADR-RES ovarian, in the test with 786-0 renal, in the test with LOX IMVI melanoma and with UO-31 renal was more than 100 µM each time.

Take `CC(=O)c1cnc2oc3ccc(O)cc3c2c1-c1ccccc1`: the TGI in the test with SK-MEL-28 melanoma is more than 100 µM; in the test with U251 CNS, more than 100 µM; in the test with IGROV1 ovarian, 45 µM; in the test on K-562 leukemia, more than 100 µM; with RXF 393 renal, more than 100 µM; in the test with OVCAR-8 ovarian, more than 100 µM. Besides, the TGI in the test with NCI/ADR-RES ovarian is 75 µM; in the test with 786-0 renal, more than 100 µM; with LOX IMVI melanoma it was more than 100 µM. Also, the results for the GI50 with IGROV1 ovarian and in the test with NCI/ADR-RES ovarian were 5.04 µM and 19.6 µM, respectively.

Regarding `C1=C\SS/C=C\SS/1`, the TGI is more than 100 µM with SK-MEL-28 melanoma; more than 100 µM with U251 CNS; 62.5 µM with IGROV1 ovarian; 85.2 µM in the test on K-562 leukemia; 88.1 µM in the test with RXF 393 renal; 49.8 µM with OVCAR-8 ovarian. The TGI with NCI/ADR-RES ovarian was more than 100 µM; in the test on 786-0 renal it was 35.8 µM; in the test on LOX IMVI melanoma, more than 100 µM; with UO-31 renal, more than 100 µM.

For the compound `[O-]/[N+](=C\c1ccccc1OC(=S)S)c1ccc(Cl)cc1`, the TGI in the test with SK-MEL-28 melanoma was more than 100 µM; in the test with U251 CNS, more than 100 µM; with IGROV1 ovarian, 30.7 µM; in the test with K-562 leukemia, more than 100 µM; in the test with RXF 393 renal, more than 100 µM; with OVCAR-8 ovarian, 30.2 µM. Also, the TGI is more than 100 µM with NCI/ADR-RES ovarian, 50.3 µM in the test with 786-0 renal, 38.8 µM in the test on LOX IMVI melanoma and 76.6 µM in the test with UO-31 renal.

For `Cc1c2c(OCC3CCCCO3)nn(C)c(=O)c2c(C)n1-c1ccccc1` (configuration not stated), the TGI in the test with U251 CNS was 31.2 µM; in the test with IGROV1 ovarian, 37.8 µM; with K-562 leukemia it was more than 100 µM; in the test on RXF 393 renal, 34.3 µM; in the test with OVCAR-8 ovarian it was 42.2 µM; in the test with NCI/ADR-RES ovarian, 50.7 µM. Further, the TGI in the test on 786-0 renal was determined as 33.9 µM; with LOX IMVI melanoma, 33.7 µM; in the test on UO-31 renal, 31.2 µM.

Regarding `N#Cc1nc(NC(=O)c2ccccc2C(=O)O)c(C#N)[nH]1`, the TGI in the test with SK-MEL-28 melanoma, with U251 CNS, in the test with IGROV1 ovarian, in the test with K-562 leukemia, in the test with OVCAR-8 ovarian and in the test with NCI/ADR-RES ovarian was more than 100 µM in each case. The TGI in the test on 786-0 renal, in the test with LOX IMVI melanoma and in the test on UO-31 renal was more than 100 µM in each case.

For the compound `CN(C)CC1CCC(CN(C)C)C1=O` (configuration not stated), the TGI is 36.5 µM in the test on SK-MEL-28 melanoma; 50.2 µM with U251 CNS; 15.4 µM in the test on IGROV1 ovarian; more than 20.3 µM with K-562 leukemia; 9.68 µM with RXF 393 renal; 10.3 µM in the test with OVCAR-8 ovarian. For the same compound, the TGI in the test on NCI/ADR-RES ovarian is 63.8 µM; in the test on 786-0 renal, 4.11 µM; in the test on LOX IMVI melanoma it was 14.4 µM; in the test on UO-31 renal it was 14 µM.

For the compound `CCOC(=O)/C=C(\C(=O)OCC)n1ccc(=O)n(Cc2cn(COCCOC(C)=O)nn2)c1=O`, the TGI in the test with SK-MEL-28 melanoma is 41 µM; in the test on U251 CNS, 36.7 µM; with IGROV1 ovarian it was 44.3 µM; with K-562 leukemia, more than 100 µM; in the test with RXF 393 renal, 38.4 µM; in the test with OVCAR-8 ovarian, 31.1 µM. The TGI in the test on NCI/ADR-RES ovarian was 52.8 µM; with 786-0 renal it was 32.9 µM; in the test with LOX IMVI melanoma it was 34.9 µM; in the test with UO-31 renal it was 34.1 µM.

With `COCCOCCOC1=CC(=O)c2c(O)ccc(O)c2C1=O`, the TGI worked out at 2.92 µM in the test on SK-MEL-28 melanoma; 3.21 µM with IGROV1 ovarian; 3.77 µM in the test with K-562 leukemia; 3.68 µM in the test on RXF 393 renal; 4.85 µM in the test on NCI/ADR-RES ovarian; 3.2 µM with 786-0 renal. Further, the values for the TGI in the test with LOX IMVI melanoma and in the test on UO-31 renal were 3.11 µM and 3.02 µM, respectively.

In the case of `COc1cc(NC(C)=O)ccc1C(=O)NN1C(=O)/C(=C/c2ccco2)N=C1c1ccccc1`, the TGI in the test with SK-MEL-28 melanoma, with IGROV1 ovarian, with K-562 leukemia, with RXF 393 renal, with OVCAR-8 ovarian and in the test on NCI/ADR-RES ovarian was more than 50 µM throughout. Moreover, the TGI with 786-0 renal, in the test with LOX IMVI melanoma and in the test on UO-31 renal was more than 50 µM each time.

On to `CCOP(=O)(/C=C\n1ccc(N)nc1=O)OCC`, for which the TGI in the test on SK-MEL-28 melanoma, with U251 CNS, in the test on IGROV1 ovarian, in the test with K-562 leukemia, in the test with RXF 393 renal and with OVCAR-8 ovarian was more than 100 µM in each case. Further, the TGI in the test with NCI/ADR-RES ovarian, in the test with 786-0 renal and in the test with LOX IMVI melanoma was more than 100 µM each time.

Turning to `COc1cc2ccc1OCc1cccc(n1)COc1ccc(cc1OC)C=Nc1ccc(cc1)N=C2`, the TGI with U251 CNS, with IGROV1 ovarian, with K-562 leukemia, in the test with RXF 393 renal, with OVCAR-8 ovarian and in the test on NCI/ADR-RES ovarian was more than 100 µM throughout. The TGI in the test on 786-0 renal, in the test with LOX IMVI melanoma and in the test with UO-31 renal was more than 100 µM in each case.

As for `O=c1cc(-c2cc(O)c(O)c(-c3c(O)cc4oc(-c5ccc(O)c(O)c5)cc(=O)c4c3O)c2)oc2cc(O)cc(O)c12`, the TGI in the test on SK-MEL-28 melanoma, in the test with U251 CNS, in the test with IGROV1 ovarian, in the test on K-562 leukemia, in the test on RXF 393 renal and in the test with OVCAR-8 ovarian was more than 25 µM each time. In addition, the TGI in the test with NCI/ADR-RES ovarian, with LOX IMVI melanoma and in the test with UO-31 renal was more than 25 µM throughout.

Regarding `COC1CC(OC2CCC3(C)C(=CCC4C3C(OC(C)=O)C(OC(=O)CC(C)C)C3(C)C(C(C)=O)CCC43O)C2)OC(C)C1OC1CC(OC)C(OC2CC(OC)C(OC3OC(C)C(OC4OC(CO)C(O)C(O)C4O)C(OC)C3O)C(C)O2)C(C)O1` (configuration not stated), the TGI in the test on SK-MEL-28 melanoma, with U251 CNS, with IGROV1 ovarian, in the test on K-562 leukemia, in the test with OVCAR-8 ovarian and in the test with NCI/ADR-RES ovarian was more than 75 µM throughout. Besides, the TGI in the test on 786-0 renal, in the test on LOX IMVI melanoma and in the test with UO-31 renal was more than 75 µM throughout.
